Where “and” joins values, the source holds several entries; their conditions need not be identical. Identical values can stand only once.

Holding throughout (assay type): cell-based, human
Common to all, as to conditions: in % (unit assumed)

One data set relates to A549 cells. Put plainly: Cell viability assay (CCK-8), A549. Set-up: key to A549 viability: % viability vs DMSO-treated cells, blank-corrected A450. As for the experimental part:
(§1) Cells were collected and seeded into 96-well plates at a density of 2000–4000 cells per well and cultured overnight to allow cells to adhere. After adherence, cells were treated with the indicated compounds for 72 h. Then 20 μL CCK-8 solution (Vazyme, A311) was added into each well and incubated at 37 °C for 2–4 h. Absorbance was detected at a wavelength of 450 nm using a TECAN plate reader. Cell viability was calculated with the equation: Cell viability (%) = 100(Absorbance of treated cell - Absorbance of Blank control)/ (Absorbance of DMSO-treated cells - Absorbance of Blank control); Blank control: medium and CCK-8 solution, no cells.

The test system of the next data set is MDA-MB-468 cells. Put plainly: Cell viability assay (CCK-8), MDA-MB-468. Set-up: key to MDMB-468 viability: % viability vs DMSO-treated cells, blank-corrected A450. As to the method: as §1
For another data set, the system named is HCT 116 cells. As to the kind of experiment: Cell viability assay (CCK-8), HCT 116. Details: key to HCT 116 viability: % viability vs DMSO-treated cells, blank-corrected A450. As to the method: as §1
The test system of another data set is HT-29 cells. As to the kind of experiment: Cell viability assay (CCK-8), HT-29. Set-up: key to HT-29 viability: % viability vs DMSO-treated cells, blank-corrected A450. As for the experimental part: as §1

Take `Cc1c(CCC(=O)O)c2cc(Br)ccc2n1C(=O)c1ccccc1` [Compound 107]: the A549 viability was 99.758 and 114.080 and 100.963 in the data set on A549 cells (0.205761 μM); 103.947 and 108.835 and 105.037 with A549 cells (0.617284 μM); 103.339 and 113.208 and 107.080 in the data set on A549 cells (1.85185 μM); 100.390 and 102.432 and 108.606 with A549 cells (5.55556 μM); 111.429 and 90.004 and 98.703 in the data set with A549 cells (16.6667 μM); 105.990 and 95.489 and 98.817 in the data set with A549 cells (50 μM). For the same compound, the MDMB-468 viability in the data set on MDA-MB-468 cells (0.205761 μM) is 101.311 and 95.140 and 93.231; with MDA-MB-468 cells (0.617284 μM), 100.675 and 92.658 and 100.039; in the data set with MDA-MB-468 cells (1.85185 μM) it was 97.239 and 104.174 and 86.869; in the data set with MDA-MB-468 cells (5.55556 μM) it was 97.876 and 87.887 and 96.349; in the data set with MDA-MB-468 cells (16.6667 μM), 85.214 and 82.224 and 83.624; with MDA-MB-468 cells (50 μM), 81.333 and 82.288 and 84.260. The “HCT 116 viability” value in the data set with HCT 116 cells (0.205761 μM) was 102.833 and 101.904 and 103.547; with HCT 116 cells (0.617284 μM), 105.053 and 111.700 and 97.075; in the data set on HCT 116 cells (1.85185 μM), 98.142 and 107.837 and 106.069; with HCT 116 cells (5.55556 μM), 107.561 and 110.157 and 105.065; in the data set with HCT 116 cells (16.6667 μM), 99.383 and 99.772 and 101.528; with HCT 116 cells (50 μM), 89.136 and 87.455 and 94.529. For the same compound, the HT-29 viability with HT-29 cells (0.205761 μM) was 107.531 and 106.250; with HT-29 cells (0.617284 μM), 105.681 and 105.762; in the data set with HT-29 cells (1.85185 μM) it was 112.450 and 111.942; in the data set with HT-29 cells (5.55556 μM), 121.172 and 105.478; with HT-29 cells (16.6667 μM) it was 115.825 and 113.345; in the data set on HT-29 cells (50 μM), 110.661 and 115.500.

With `CCOC(=O)CCc1c(C)n(C(=O)c2ccccc2)c2ccc(Br)cc12` [Compound 105], the A549 viability in the data set with A549 cells (0.205761 μM) was 96.121 and 99.380 and 106.104; in the data set on A549 cells (0.617284 μM), 98.783 and 101.411 and 97.532; with A549 cells (1.85185 μM) it was 93.780 and 103.281 and 111.131; with A549 cells (5.55556 μM), 105.404 and 106.621 and 106.322; in the data set on A549 cells (16.6667 μM) it was 96.476 and 98.393 and 111.165; with A549 cells (50 μM), 100.539 and 103.017 and 106.219. Moreover, the MDMB-468 viability is 105.638 and 111.110 and 96.794 with MDA-MB-468 cells (0.205761 μM); 104.047 and 105.002 and 96.794 in the data set with MDA-MB-468 cells (0.617284 μM); 99.021 and 100.357 and 92.786 in the data set with MDA-MB-468 cells (1.85185 μM); 101.502 and 93.231 and 90.241 in the data set on MDA-MB-468 cells (5.55556 μM); 91.131 and 95.903 and 102.075 with MDA-MB-468 cells (16.6667 μM); 78.343 and 88.459 and 92.404 in the data set with MDA-MB-468 cells (50 μM). Also, the “HCT 116 viability” value with HCT 116 cells (0.205761 μM) was 105.479 and 107.511 and 97.213; with HCT 116 cells (0.617284 μM), 103.773 and 98.693 and 112.553; in the data set with HCT 116 cells (1.85185 μM) it was 103.848 and 104.852 and 99.659; with HCT 116 cells (5.55556 μM), 103.874 and 100.174 and 105.429; in the data set with HCT 116 cells (16.6667 μM), 102.870 and 107.248 and 108.126; in the data set on HCT 116 cells (50 μM) it was 80.557 and 78.801 and 90.315. Besides, the HT-29 viability was 113.182 and 110.499 and 118.448 in the data set on HT-29 cells (0.205761 μM); 123.469 and 111.597 and 102.062 in the data set on HT-29 cells (0.617284 μM); 133.369 and 110.621 and 100.802 with HT-29 cells (1.85185 μM); 113.223 and 102.896 and 116.984 with HT-29 cells (5.55556 μM); 110.519 and 102.367 and 115.540 with HT-29 cells (16.6667 μM); 128.693 and 87.059 and 105.213 with HT-29 cells (50 μM).

For the origin of these results see paper PMC12475274, “Harnessing indole scaffolds to identify small-molecule IRE1α inhibitors modulating XBP1 mRNA splicing” (Nature Communications, 2025).
